Measured values reported in ChEMBL document CHEMBL1681747, “Novel second generation analogs of eribulin. Part II: Orally available and active against resistant tumors in vivo” (Bioorg Med Chem Lett, 2011).
pIC50: −log10 of the molar value. Active and inactive are the calls of the source. No cut-off for these calls is given here.

Assays:
[1] = Volume of distribution at steady state in BALB/c mouse at 5 mg/kg, iv; assay type: ADME, organism-based; set-up: dose 5 mg/kg, route intravenous; settings: in vivo, read-out: Vdss
[2] = Clearance in BALB/c mouse at 5 mg/kg, iv; assay type: ADME, organism-based; set-up: dose 5 mg/kg, route intravenous; settings: in vivo
[3] = Oral bioavailability in BALB/c mouse at 5 mg/kg; assay type: ADME, organism-based; settings: in vivo
[4] = Half life in BALB/c mouse at 5 mg/kg; assay type: ADME, organism-based; set-up: dose 5 mg/kg; settings: in vivo
[5] = Tmax in BALB/c mouse at 5 mg/kg; assay type: ADME, organism-based; set-up: dose 5 mg/kg; settings: in vivo
HCT-15 = experiment: Cytotoxicity against human HCT15 cells; assay type: functional, cell-based
[6] = AUC (0 to infinity) in BALB/c mouse at 5 mg/kg; assay type: ADME, organism-based; set-up: time infinity, dose 5 mg/kg; settings: plasma
DLD-1 [7] = experiment: Cytotoxicity against human DLD1 cells; assay type: functional, cell-based
DLD-1 [8] = experiment: Antitumor activity against human DLD1 cells xenografted in iv dosed athymic mouse assessed as tumor growth inhibition administered qd for weekly 3 days; assay type: functional, organism-based
LOX = experiment: Antitumor activity against human LOX cells xenografted in athymic mouse assessed as long term tumor regression at 0.95 to 3 mg/kg, po administered 6 days after tumor implantation qd for 2 weeks; assay type: functional, organism-based
DLD-1 [9] = experiment: Antitumor activity against human DLD1 cells xenografted in athymic mouse assessed as tumor stasis at 1.3 to 3 mg/kg, iv administered 2 weeks after tumor implantation qd for weekly 3 days; assay type: functional, organism-based
[10] = Half life in BALB/c mouse at 10 mg/kg; assay type: ADME, organism-based; set-up: dose 10 mg/kg; settings: in vivo
[11] = Oral bioavailability in BALB/c mouse at 10 mg/kg; assay type: ADME, organism-based; settings: in vivo
[12] = Tmax in BALB/c mouse at 10 mg/kg; assay type: ADME, organism-based; set-up: dose 10 mg/kg; settings: in vivo
[13] = Clearance in BALB/c mouse at 10 mg/kg, iv; assay type: ADME, organism-based; set-up: dose 10 mg/kg, route intravenous; settings: in vivo
[14] = Volume of distribution at steady state in BALB/c mouse at 10 mg/kg, iv; assay type: ADME, organism-based; set-up: dose 10 mg/kg, route intravenous; settings: in vivo, read-out: Vdss
[15] = AUC (0 to infinity) in BALB/c mouse at 10 mg/kg; assay type: ADME, organism-based; set-up: time infinity, dose 10 mg/kg; settings: plasma

SMILES	Vd [1] [L/kg]	clearance [2] [mL/min/kg]	bioavailability [3] [%]	half-life [4] [min]	Tmax [5] [min]	pIC50 (HCT-15)	AUC(0-inf) [6] [ng·h/mL]	pIC50 (DLD-1 [7])	Activity (DLD-1 [8])	Activity (LOX)	Activity (DLD-1 [9])	half-life [10] [min]	bioavailability [11] [%]	Tmax [12] [min]	clearance [13] [mL/min/kg]	Vd [14] [L/kg]	AUC(0-inf) [15] [ng·h/mL]
C=C1C[C@@H]2CC[C@@]34C[C@H]5O[C@H]6[C@@H](O3)[C@H]3O[C@H](CC[C@@H]3O[C@H]6[C@H]5O4)CC(=O)C[C@@H]3[C@@H](OC)[C@@H](CC(=O)CN4CCOCC4)O[C@H]3C[C@H]3O[C@@H](CC[C@@H]1O2)C[C@@H](C)C3=C	3.64	47	13.3	102	5	9.34	236	9.15									
C=C1C[C@@H]2CC[C@@]34C[C@H]5O[C@H]6[C@@H](O3)[C@H]3O[C@H](CC[C@@H]3O[C@H]6[C@H]5O4)CC(=O)C[C@@H]3[C@@H](OC)[C@@H](C[C@@H](CN4CCOCC4)OC)O[C@H]3C[C@H]3O[C@@H](CC[C@@H]1O2)C[C@@H](C)C3=C	0.92	11.3	14.9	54	5	9.70	1090	9.64	Dose-dependent effect	Active	Active						
C=C1C[C@@H]2CC[C@@]34C[C@H]5O[C@H]6[C@@H](O3)[C@H]3O[C@H](CC[C@@H]3O[C@H]6[C@H]5O4)CC(=O)C[C@@H]3[C@@H](OC)[C@@H](C[C@H](O)CN)O[C@H]3C[C@H]3O[C@@H](CC[C@@H]1O2)C[C@@H](C)C3=C [ERIBULIN]												924	3.2	5	19.8	4.95	161
C=C1C[C@@H]2CC[C@@]34C[C@H]5O[C@H]6[C@@H](O3)[C@H]3O[C@H](CC[C@@H]3O[C@H]6[C@H]5O4)CC(=O)C[C@@H]3[C@@H](OC)[C@@H](CCNCC(F)F)O[C@H]3C[C@H]3O[C@@H](CC[C@@H]1O2)C[C@@H](C)C3=C	4.78	48.5	11.3	246	5	8.51	63	8.50									
